Measurements reported in patent US20240400555A1 (Initial Therapeutics, Inc., priority 2023, published 2024).

System: MV-4-11 cells
Test: Cell Viability Assay in MV-4-11 Cells
Format: cell-based
Conditions: Homo sapiens, MV4-11, 72 h, MV-4-11 cells, 72 h, Cell-Titer Glo; read-out: IC50
In short: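 MV-4-11 cells at 7,000/well in IMDM with 10% FBS, exposed to compound for 72 h. Viability by CellTiter-Glo luminescence, normalized to DMSO as 100%, fitted with a four-parameter curve.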

Row | SMILES | IC50
1 | CNc1cccnc1Nc1ccc(C(=O)N(c2nccc3cccc(C)c23)[C@@H]2CCCNC2)c(F)c1 [Example 726, (R)-2-fluoro-4-((3-(methylamino)pyridin-2-yl)amino)-N-(8-methylisoquinolin-1-yl)-N-(piperidin-3-yl)benzamide] | 1900 nM
2 | Cc1cccc2ccnc(N(C(=O)c3ccc(Nc4nccc(-c5cccnc5)n4)cc3F)[C@@H]3CCCNC3)c12 [Example 727, (R)-2-fluoro-N-(8-methylisoquinolin-1-yl)-N-(piperidin-3-yl)-4-((4-(pyridin-3-yl)pyrimidin-2-yl)amino)benzamide] | 32 nM
3 | Cc1cccc2ccnc(N(C(=O)c3ccc(Nc4nccc(-c5ccccn5)n4)cc3F)[C@@H]3CCCNC3)c12 [Example 728, (R)-2-fluoro-N-(8-methylisoquinolin-1-yl)-N-(piperidin-3-yl)-4-((4-(pyridin-2-yl)pyrimidin-2-yl)amino)benzamide] | 86 nM
4 | COCCn1nc(C)cc1-c1ccc(C(=O)N(c2nccc3cc(F)cc(C)c23)[C@@H]2CCCNC2)nc1 [Example 729, (R)—N-(6-fluoro-8-methylisoquinolin-1-yl)-5-(1-(2-methoxyethyl)-3-methyl-1H-pyrazol-5-yl)-N-(piperidin-3-yl)picolinamide] | > 6500 nM
5 | CCc1nnc(-c2ccc(C(=O)N(c3nccc4cc(Cl)cc(C)c34)[C@@H]3CCCNC3)nc2)s1 [Example 730, (R)—N-(6-chloro-8-methylisoquinolin-1-yl)-5-(5-ethyl-1,3,4-thiadiazol-2-yl)-N-(piperidin-3-yl)picolinamide] | 260 nM
6 | COC/C=C(\Cl)c1ccnc(Nc2ccc(C(=O)N(c3nccc4cccc(C)c34)[C@@H]3CCCNC3)c(F)c2)n1 [Example 731, (R)-4-((4-(1-chloro-3-methoxyprop-1-en-1-yl)pyrimidin-2-yl)amino)-2-fluoro-N-(8-methylisoquinolin-1-yl)-N-(piperidin-3-yl)benzamide] | 120 nM
7 | Cc1ncc(-c2cc(C)c3c(N(C(=O)c4ccc(-c5nnc(C)s5)cc4F)[C@@H]4CCCNC4)nccc3c2)s1 [Example 732, 2-fluoro-N-[8-methyl-6-(2-methylthiazol-5-yl)-1-isoquinolyl]-4-(5-methyl-1,3,4-thiadiazol-2-yl)-N-[(3R)-3-piperidyl]benzamide] | 49 nM
8 | Cc1cccc2ccnc(N(C(=O)c3ccc(Nc4nccc(NCCO)n4)cc3F)[C@@H]3CCCNC3)c12 [Example 734, (R)-2-fluoro-4-((4-((2-hydroxyethyl)amino)pyrimidin-2-yl)amino)-N-(8-methylisoquinolin-1-yl)-N-(piperidin-3-yl)benzamide] | 81 nM
9 | Cc1cccc2ccnc(N(C(=O)c3ccc(Nc4nccc(O)n4)cc3F)[C@@H]3CCCNC3)c12 [Example 735, (R)-2-fluoro-4-((4-hydroxypyrimidin-2-yl)amino)-N-(8-methylisoquinolin-1-yl)-N-(piperidin-3-yl)benzamide] | > 6200 nM
10 | Cc1cccc2ccnc(N(C(=O)c3ccc(Nc4nccc(CCO)n4)cc3F)[C@@H]3CCCNC3)c12 [Example 736, (R)-2-fluoro-4-((4-(2-hydroxyethyl)pyrimidin-2-yl)amino)-N-(8-methylisoquinolin-1-yl)-N-(piperidin-3-yl)benzamide] | 220 nM
11 | Cc1cc(C2=NOC(C)(C)C2=O)ccc1C(=O)N(c1nccc2sc(C#CCO)cc12)[C@@H]1CCCNC1 [Example 737, (R)-4-(5,5-dimethyl-4-oxo-4,5-dihydroisoxazol-3-yl)-N-(2-(3-hydroxyprop-1-yn-1-yl)thieno[3,2-c]pyridin-4-yl)-2-methyl-N-(piperidin-3-yl)benzamide] | 2100 nM
12 | O=C(c1ccc(Nc2ncccn2)cc1F)N(c1nccc2cc(Nc3ncccn3)ccc12)[C@@H]1CCCNC1 [Example 738, (R)-2-fluoro-N-(piperidin-3-yl)-4-(pyrimidin-2-ylamino)-N-(6-(pyrimidin-2-ylamino)isoquinolin-1-yl)benzamide] | 3700 nM
13 | Cc1cc2c(N(C(=O)c3ccc(-n4nnc5cccnc54)cc3F)[C@@H]3CCCNC3)nccc2s1 [Example 739, (R)-4-(3H-[1,2,3]triazolo[4,5-b]pyridin-3-yl)-2-fluoro-N-(2-methylthieno[3,2-c]pyridin-4-yl)-N-(piperidin-3-yl)benzamide] | 650 nM
14 | O=C(c1ccc(-n2nnc3cccnc32)cc1F)N(c1nccc2sc(C3CC3)cc12)[C@@H]1CCCNC1 [Example 740, (R)-4-(3H-[1,2,3]triazolo[4,5-b]pyridin-3-yl)-N-(2-cyclopropylthieno[3,2-c]pyridin-4-yl)-2-fluoro-N-(piperidin-3-yl)benzamide] | 600 nM
15 | Cc1cccc2ccnc(N(C(=O)c3ccc(Nc4nccc(CN5CCOCC5)n4)cc3F)[C@@H]3CCCNC3)c12 [Example 741, (R)-2-fluoro-N-(8-methylisoquinolin-1-yl)-4-((4-(morpholinomethyl)pyrimidin-2-yl)amino)-N-(piperidin-3-yl)benzamide] | 310 nM
16 | COCCN(C)c1ccnc(Nc2ccc(C(=O)N(c3nccc4cccc(C)c34)[C@@H]3CCCNC3)c(F)c2)n1 [Example 742, (R)-2-fluoro-4-((4-((2-methoxyethyl)(methyl)amino)pyrimidin-2-yl)amino)-N-(8-methylisoquinolin-1-yl)-N-(piperidin-3-yl)benzamide] | 82 nM

Row | SMILES | IC50
17 | Cc1cccc2ccnc(N(C(=O)c3ccc(Nc4nccc(N(C)CCO)n4)cc3F)[C@@H]3CCCNC3)c12 [Example 743, (R)-2-fluoro-4-((4-((2-hydroxyethyl)(methyl)amino)pyrimidin-2-yl)amino)-N-(8-methylisoquinolin-1-yl)-N-(piperidin-3-yl)benzamide] | 160 nM
18 | COCCNc1ccnc(Nc2ccc(C(=O)N(c3nccc4cccc(C)c34)[C@@H]3CCCNC3)c(F)c2)n1 [Example 744, (R)-2-fluoro-4-((4-((2-methoxyethyl)amino)pyrimidin-2-yl)amino)-N-(8-methylisoquinolin-1-yl)-N-(piperidin-3-yl)benzamide] | 69 nM
19 | CCCN(C)c1ccnc(Nc2ccc(C(=O)N(c3nccc4cccc(C)c34)[C@@H]3CCCNC3)c(F)c2)n1 [Example 745, (R)-2-fluoro-4-((4-(methyl(propyl)amino)pyrimidin-2-yl)amino)-N-(8-methylisoquinolin-1-yl)-N-(piperidin-3-yl)benzamide] | 160 nM
20 | CCCNc1ccnc(Nc2ccc(C(=O)N(c3nccc4cccc(C)c34)[C@@H]3CCCNC3)c(F)c2)n1 [Example 746, (R)-2-fluoro-N-(8-methylisoquinolin-1-yl)-N-(piperidin-3-yl)-4-((4-(propylamino)pyrimidin-2-yl)amino)benzamide] | 33 nM
21 | Cc1cc(C(=O)N(c2nccc3cccc(C)c23)[C@@H]2CCCNC2)ccc1Nc1ncccn1 [Example 747, (R)-3-methyl-N-(8-methylisoquinolin-1-yl)-N-(piperidin-3-yl)-4-(pyrimidin-2-ylamino)benzamide] | 2700 nM
22 | Cc1cccc2ccnc(N(C(=O)c3ccc(Nc4nccc(/C=C/CO)n4)cc3F)[C@@H]3CCCNC3)c12 [Example 748, (R,E)-2-fluoro-4-((4-(3-hydroxyprop-1-en-1-yl)pyrimidin-2-yl)amino)-N-(8-methylisoquinolin-1-yl)-N-(piperidin-3-yl)benzamide] | 92 nM
23 | COC/C=C/c1ccnc(Nc2ccc(C(=O)N(c3nccc4cccc(C)c34)[C@@H]3CCCNC3)c(F)c2)n1 [Example 749, (R,E)-2-fluoro-4-((4-(3-methoxyprop-1-en-1-yl)pyrimidin-2-yl)amino)-N-(8-methylisoquinolin-1-yl)-N-(piperidin-3-yl)benzamide] | 140 nM
24 | COCC#Cc1ccnc(Nc2ccc(C(=O)N(c3nccc4cccc(C)c34)[C@@H]3CCCNC3)c(F)c2)n1 [Example 751, (R)-2-fluoro-4-((4-(3-methoxyprop-1-yn-1-yl)pyrimidin-2-yl)amino)-N-(8-methylisoquinolin-1-yl)-N-(piperidin-3-yl)benzamide] | 190 nM
25 | COCCCc1ccnc(Nc2ccc(C(=O)N(c3nccc4cccc(C)c34)[C@@H]3CCCNC3)c(F)c2)n1 [Example 752, (R)-2-fluoro-4-((4-(3-methoxypropyl)pyrimidin-2-yl)amino)-N-(8-methylisoquinolin-1-yl)-N-(piperidin-3-yl)benzamide] | 190 nM
26 | CCc1nc(Nc2ccc(C(=O)N(c3nccc4cccc(C)c34)[C@@H]3CCCNC3)c(F)c2)ncc1F [Example 753, (R)-4-((4-ethyl-5-fluoropyrimidin-2-yl)amino)-2-fluoro-N-(8-methylisoquinolin-1-yl)-N-(piperidin-3-yl)benzamide] | 170 nM
27 | Cc1nc(Nc2ccc(C(=O)N(c3nccc4cccc(C)c34)[C@@H]3CCCNC3)c(F)c2)ncc1F [Example 754, (R)-2-fluoro-4-((5-fluoro-4-methylpyrimidin-2-yl)amino)-N-(8-methylisoquinolin-1-yl)-N-(piperidin-3-yl)benzamide] | 340 nM
28 | Cc1nnc(-c2ccc(C(=O)N(c3nccc4cc(Cl)cc(C)c34)[C@@H]3CCCNC3)cc2)s1 [Example 755, (R)—N-(6-chloro-8-methylisoquinolin-1-yl)-4-(5-methyl-1,3,4-thiadiazol-2-yl)-N-(piperidin-3-yl)benzamide] | 87 nM
29 | Cc1cc2c(N(C(=O)c3ccc(-n4cnc5ccccc54)cc3F)[C@@H]3CCCNC3)nccc2s1 [Example 756, (R)-4-(1H-benzo[d]imidazol-1-yl)-2-fluoro-N-(2-methylthieno[3,2-c]pyridin-4-yl)-N-(piperidin-3-yl)benzamide] | > 6300 nM
30 | Cc1nnc(-c2ccc(C(=O)N(c3nccc4scc(C)c34)[C@@H]3CCCNC3)c(C)c2)s1 [Example 757, 2-methyl-4-(5-methyl-1,3,4-thiadiazol-2-yl)-N-(3-methylthieno[3,2-c]pyridin-4-yl)-N-[(3R)-3-piperidyl]benzamide] | 530 nM
31 | Cc1csc2ccnc(N(C(=O)c3ccc(-c4cn(C)nn4)cc3Cl)[C@@H]3CCCNC3)c12 [Example 758, (R)-2-chloro-4-(1-methyl-1H-1,2,3-triazol-4-yl)-N-(3-methylthieno[3,2-c]pyridin-4-yl)-N-(piperidin-3-yl)benzamide] | 170 nM
